Where no end group is shown, it is not given here. [ ]: non-standard residue; d: D form. NMeA = CN[C@@H](C)C(=O)O; Ahx = NCCCCCC(=O)O

Assay [1] has as its system M. persicae (peach potato/Green Peach Aphid). Kind of assay: IRAC leaf dip assay on adult aphids. Format: in vivo, Myzus persicae. The conditions noted are these: for Peptide efficacy compared with endogenous CAPA-3: adult aphids and nymphs, scored 72, 96 and 120 hours. As to the method:
Peptide efficacy (2×10^−4 M) was assessed on M. persicae (peach potato/Green Peach Aphid) using IRAC leaf dip assays on adult aphids. Peptides were administered on leaves either in DDH2O or Amino Acid Mix (Sadeghi et al., 2010) to increase uptake via feeding. Insecticide treatment was with Spirotetramat, 2×10^−4 M
Data are from 120 hours post-treatment, indicating % adult lethality (left panel); and number of nymphs per sample (right panel) for each of SB-P-1 (endogenous CAPA-3, N =26 (H2O); 15 (AA)), SB-P-14 (CAPA-3 analogue, N=5); SB-P-15 (CAPA-3 analogue, N=10). Peptide application rates are 2×10^−4 M. Note that nymph values for spirotetramat are 0.
Data are for 120 hours, indicating % adult lethality (left panel); and number of nymphs per sample (right panel). Individual data points are shown, N=5. Peptide application rates are 2×10^−4 M.

Another assay relates to Pyrokinin receptor. The conditions noted are these: Brown Marmorated Stinkbug, H. halys; Ahn et al., 2020; cited from earlier work.
In a further assay the test system is H. halys CAPA receptor. The conditions noted are these: data in Ahn et al, 2020; cited from earlier work.
Assay [2] deals with M. persicae CAPA receptor. As to the kind of experiment: activation assay (IP1 assay) for M. persicae CAPA receptor. The class given is cell-based, Myzus persicae. The conditions noted are these: initial screen, FIG. 7.
Setting [3] is: leaf dip, peptide 2×10^−4 M, 120 hours.

`CCOC(=O)OC1=C(c2cc(C)ccc2C)C(=O)N[C@]12CC[C@@H](OC)CC2` [spirotetramat, Spirotetramat, reference compound]: in assay [1] (120 hours post-treatment, 2×10^−4 M), the “number of nymphs per sample” value was found to be 0.
With H-SDSKNTALWFGPRL-NH2 [SB-P-1], the “activation of Pyrokinin receptor” value in the assay on Pyrokinin receptor is “activate”. The “activation of H. halys CAPA receptor” value in the assay on H. halys CAPA receptor is listed as “does not activate”. In addition, the “activation of M. persicae CAPA receptor” value in assay [2] is listed as “do not activate”.
For “Hy-Ahx-SDSKNT[n-me-A]LWFGPRL-[NH2] ([Ahx]SDSKNT[NMeA]LWFGPRL-NH2; N-terminus assumed; SMILES CC(C)C[C@H](NC(=O)[C@H](CCCNC(=N)N)NC(=O)[C@@H]1CCCN1C(=O)CNC(=O)[C@H](Cc1ccccc1)NC(=O)[C@H](Cc1c[nH]c2ccccc12)NC(=O)[C@H](CC(C)C)NC(=O)[C@H](C)N(C)C(=O)[C@@H](NC(=O)[C@H](CC(N)=O)NC(=O)[C@H](CCCCN)NC(=O)[C@H](CO)NC(=O)[C@H](CC(=O)O)NC(=O)[C@H](CO)NC(=O)CCCCCN)[C@@H](C)O)C(N)=O) [SB-P-14]”, the “Peptide efficacy compared with endogenous CAPA-3” value in assay [1] (leaf dip, peptide 2×10^−4 M) was “did not perform as well as endogenous CAPA-3”.
Turning to “Hy-SDSKNT[n-me-A]LWFGPRL-[nh2] [SB-P-15]”, in assay [1] (leaf dip, peptide 2×10^−4 M), the “Peptide efficacy compared with endogenous CAPA-3” value is listed as “an improvement on endogenous CAPA-3 efficacy”. Also, in assay [1] (setting [3]), the “aphicidal efficacy (adult lethality)” value was “highly effective” and the nymphicidal efficacy entry is on record as “highly effective”. In addition, the “activation of M. persicae CAPA receptor” value in assay [2] is “do not activate”.

Source of the values: patent US20260248128A1, “INSECT NEUROPEPTIDE ANALOGUES” (Solasta Bio Limited, priority 2021, published 2026).
